Measured values reported in BigSolDB 2.1.

COC(=O)[C@@H](N)CS.Cl
Settings	solubility (mole fraction)
in 1,4-dioxane, 288.15 K	0.00083
in 1,4-dioxane, 293.15 K	0.001
in 1,4-dioxane, 298.15 K	0.0013
in 1,4-dioxane, 303.15 K	0.00147
in 1,4-dioxane, 308.15 K	0.00184
in 1,4-dioxane, 313.15 K	0.00211
in 1,4-dioxane, 318.15 K	0.00232
in 1,4-dioxane, 323.15 K	0.00269
in 1,4-dioxane, 328.15 K	0.00305
in 1,4-dioxane, 333.15 K	0.00349
in 2-butanone, 283.15 K	0.00065
in 2-butanone, 288.15 K	0.00084
in 2-butanone, 293.15 K	0.00108
in 2-butanone, 298.15 K	0.00132
in 2-butanone, 303.15 K	0.00164
in 2-butanone, 308.15 K	0.00192
in 2-butanone, 313.15 K	0.00225
in 2-butanone, 318.15 K	0.0025
in 2-butanone, 323.15 K	0.00333
in 2-butanone, 328.15 K	0.00418
in 2-butanone, 333.15 K	0.00573
in acetone, 283.15 K	0.00062
in acetone, 288.15 K	0.00073
in acetone, 293.15 K	0.00082
in acetone, 298.15 K	0.00087
in acetone, 303.15 K	0.00093
in acetone, 308.15 K	0.00101
in acetone, 313.15 K	0.00111
in acetone, 318.15 K	0.00124
in acetone, 323.15 K	0.00152
in acetonitrile, 283.15 K	0.00021
in acetonitrile, 288.15 K	0.00029
in acetonitrile, 293.15 K	0.00032
in acetonitrile, 298.15 K	0.0004
in acetonitrile, 303.15 K	0.00043
in acetonitrile, 308.15 K	0.0005
in acetonitrile, 313.15 K	0.00062
in acetonitrile, 318.15 K	0.00091
in acetonitrile, 323.15 K	0.00098
in acetonitrile, 328.15 K	0.00104
in acetonitrile, 333.15 K	0.00123
in dichloromethane, 283.15 K	5e-05
in dichloromethane, 288.15 K	7e-05
in dichloromethane, 293.15 K	9e-05
in dichloromethane, 298.15 K	0.00011
in dichloromethane, 303.15 K	0.00013
in ethanol, 283.15 K	0.0232
in ethanol, 288.15 K	0.0257
in ethanol, 293.15 K	0.029
in ethanol, 298.15 K	0.0337
in ethanol, 303.15 K	0.0428
in ethanol, 308.15 K	0.0471
in ethanol, 313.15 K	0.0536
in ethanol, 318.15 K	0.0622
in ethanol, 323.15 K	0.0722
in ethanol, 328.15 K	0.0864
in ethanol, 333.15 K	0.1
in ethyl acetate, 283.15 K	7e-05
in ethyl acetate, 288.15 K	0.0001
in ethyl acetate, 293.15 K	0.00012
in ethyl acetate, 298.15 K	0.00015
in ethyl acetate, 303.15 K	0.00018
in ethyl acetate, 308.15 K	0.00023
in ethyl acetate, 313.15 K	0.00027
in ethyl acetate, 318.15 K	0.0003
in ethyl acetate, 323.15 K	0.00032
in ethyl acetate, 328.15 K	0.00042
in ethyl acetate, 333.15 K	0.00052
in isobutanol, 283.15 K	0.00393
in isobutanol, 288.15 K	0.00437
in isobutanol, 293.15 K	0.00478
in isobutanol, 298.15 K	0.00541
in isobutanol, 303.15 K	0.00634
in isobutanol, 308.15 K	0.00718
in isobutanol, 313.15 K	0.0086
in isobutanol, 318.15 K	0.00972
in isobutanol, 323.15 K	0.0125
in isobutanol, 328.15 K	0.0162
in isobutanol, 333.15 K	0.0196
in isopropanol, 283.15 K	0.0036
in isopropanol, 288.15 K	0.00389
in isopropanol, 293.15 K	0.00422
in isopropanol, 298.15 K	0.00512
in isopropanol, 303.15 K	0.00585
in isopropanol, 308.15 K	0.00648
in isopropanol, 313.15 K	0.00806
in isopropanol, 318.15 K	0.0097
in isopropanol, 323.15 K	0.0127
in isopropanol, 328.15 K	0.0153
in isopropanol, 333.15 K	0.0188
in methanol, 283.15 K	0.0906
in methanol, 288.15 K	0.0944
in methanol, 293.15 K	0.106
in methanol, 298.15 K	0.114
in methanol, 303.15 K	0.127
in methanol, 308.15 K	0.139
in methanol, 313.15 K	0.155
in methanol, 318.15 K	0.168
in methanol, 323.15 K	0.187
in methanol, 328.15 K	0.212
in methanol, 333.15 K	0.257
in n-butanol, 283.15 K	0.00537
in n-butanol, 288.15 K	0.00599
in n-butanol, 293.15 K	0.0067
in n-butanol, 298.15 K	0.00847
in n-butanol, 303.15 K	0.0106
in n-butanol, 308.15 K	0.0124
in n-butanol, 313.15 K	0.0136
in n-butanol, 318.15 K	0.0164
in n-butanol, 323.15 K	0.0198
in n-butanol, 328.15 K	0.0238
in n-butanol, 333.15 K	0.0306
in n-pentanol, 283.15 K	0.0039
in n-pentanol, 288.15 K	0.00462
in n-pentanol, 293.15 K	0.0054
in n-pentanol, 298.15 K	0.00662
in n-pentanol, 303.15 K	0.00824
in n-pentanol, 308.15 K	0.00924
in n-pentanol, 313.15 K	0.0111
in n-pentanol, 318.15 K	0.0125
in n-pentanol, 323.15 K	0.0149
in n-pentanol, 328.15 K	0.0187
in n-pentanol, 333.15 K	0.0236
in n-propanol, 283.15 K	0.00805
in n-propanol, 288.15 K	0.00883
in n-propanol, 293.15 K	0.0106
in n-propanol, 298.15 K	0.0124
in n-propanol, 303.15 K	0.0145
in n-propanol, 308.15 K	0.0161
in n-propanol, 313.15 K	0.0193
in n-propanol, 318.15 K	0.0219
in n-propanol, 323.15 K	0.0272
in n-propanol, 328.15 K	0.0306
in n-propanol, 333.15 K	0.0384
in sec-butanol, 283.15 K	0.00252
in sec-butanol, 288.15 K	0.00265
in sec-butanol, 293.15 K	0.00283
in sec-butanol, 298.15 K	0.00372
in sec-butanol, 303.15 K	0.00416
in sec-butanol, 308.15 K	0.00455
in sec-butanol, 313.15 K	0.00513
in sec-butanol, 318.15 K	0.0063
in sec-butanol, 323.15 K	0.0082
in sec-butanol, 328.15 K	0.00958
in sec-butanol, 333.15 K	0.0112
